Tested on: patients with metastatic breast cancer
Conditions: DPPE pretreatment
Method: In the specific Phase II clinical trial described herein, there was employed 6 mg/kg of DPPE in the form of its hydrochloride salt, administered intravenously as an aqueous solution thereof over 80 minutes, with the last 20 minutes being accompanied by infusion of the chemotherapeutic agents doxorubicin or epirubicin in combination with Taxol or Taxotere followed by the intravenous administration of an aqueous solution at a dose of 2.5 mg/kg of DPPE for 180 minutes accompanied by the infusion of Taxol or for 60 minutes accompanied by the infusion of Taxotere.
In the specific Phase II clinical trial described herein, there was employed 50 mg/M^2 of doxorubicin/epirubicin and either 175 mg/^2 Taxol or 75 mg/M^2 Taxotere administered over the last 20 minutes of infusion of the DPPE solution and over a further 180 minutes for Taxol or 60 minutes for Taxotere, accompanied by infusion of a 2.5 mg/kg of DPPE solution.
29 patients with metastatic breast cancer were treated with a combination of DPPE and epirubicin/Taxol (N=22), DPPE and doxorubicin/Taxol (N=6) or a combination of DPPE and epirubicin/Taxotere (N=1). […]

In the case of `CCN(CC)CCOc1ccc(Cc2ccccc2)cc1` [DPPE, N,N-diethyl-2-[4-(phenylmethyl)-phenoxy]ethanamine], the “TTP in comparison to patients not receiving DPPE treatment” value is reported as “did not improve” and the “overall survival of patients receiving DPPE” value (compared with published studies) is reported as “significantly improved”.

Reference: patent US20060089317A1, “Treatment of metastatic breast cancer with anthracyclines, and taxanes” (The University Of Manitoba, priority 2002, published 2006)
